# Literature values as cited in patent publication US20210000953A1, “USE OF IMMUNE CHECKPOINT INHIBITORS IN CENTRAL NERVOUS SYSTEMS NEOPLASMS” (Bristol-Myers Squibb Company, priority 2014, published 2021).
# Assays:
# [1] = in vivo; cited from earlier work
# previously treated GBM = conditions: AVF3708g, cited from earlier work
# [2] = tested on: previously treated gliomas; conditions: NCI 06-C-0064E, cited from earlier work
# newly diagnosed GBM = conditions: cited from earlier work
# recurrent GBM = conditions: single agent, relapsed setting; cited from earlier work
molecule,measurement,setting,value
Cn1nnc2c(C(N)=O)ncn2c1=O [temozolomide],Terminal half-life,[1],1.2 h
bevacizumab,"Responses, % of patients","previously treated GBM; WHO radiographic criteria, 95% CI:17.0%, 36.1%",25.9%
same,Median duration of response,"previously treated GBM; 95% CI: 3.0, 5.7 months",4.2 months
same,Objective responses,"[2]; 56 patients with high-grade glioma, 95% CI, 10.9%, 31.3%",19.6%
same,Median duration of response,"[2]; 95% CI: 2.4, 17.4",3.9 months
same,Cognitive function and quality of life,newly diagnosed GBM; in vivo,reduced cognitive function and quality of life
same,Overall survival,"newly diagnosed GBM; newly diagnosed GBM, above standard of care (radiotherapy plus temozolomide)",does not significantly increase overall survival
same,Progression-free survival,"newly diagnosed GBM; newly diagnosed GBM, with radiotherapy plus temozolomide",increases progression-free survival
CCc1c2c(nc3ccc(OC(=O)N4CCC(N5CCCCC5)CC4)cc13)-c1cc3c(c(=O)n1C2)COC(=O)[C@]3(O)CC [irinotecan],Response rates,recurrent GBM,≤ 15%
